Key:
Test in all cases: Pemetrexed cytotoxicity test upon suppression of expression of MYT1
Type in all cases: cell-based
NCI-H460 = NCI-H460 (RB1 wild-type)
Experimental: (§1) Thereafter, the plates were shaken to transfect each siRNA at a final concentration of 10 nM.
(§2) The −Log 2 value of fold change of IC50 and the maximum value of Bliss score, which are indexes of the combination effect, were calculated by comparing with the actually obtained cell survival curve, and described in Table 6 (see Non Patent Literature 9).

NCI-H292 = NCI-H292 (RB1 wild-type)
Experimental: as §1, §2

NCI-H1666 = NCI-H1666 (RB1 wild-type)
Experimental: as §1, §2

NCI-H441 = NCI-H441 (RB1 wild-type)
Experimental: as §1, §2

NCI-H358 = NCI-H358 (RB1 wild-type)
Experimental: as §1, §2

LU65 = LU65 (RB1 mutant)
Experimental: as §1, §2

NCI-H322 = NCI-H322 (RB1 wild-type)
Experimental: as §1, §2

NCI-H1155 = NCI-H1155 (RB1 mutant)
Experimental: as §1, §2

ChaGo-K-1 = ChaGo-K-1 (RB1 mutant)
Experimental: as §1, §2

NCI-H1993 = NCI-H1993 (RB1 wild-type)
Experimental: as §1, §2

NCI-H2110 = NCI-H2110 (RB1 mutant)
Experimental: as §1, §2

NCI-H596 = NCI-H596 (RB1 mutant)
Experimental: as §1, §2

A549 = A549 (RB1 wild-type)
Experimental: as §1, §2

NCI-H661 = NCI-H661 (RB1 wild-type)
Experimental: as §1, §2

EKVX = EKVX (RB1 wild-type)
Experimental: as §1, §2

NCI-H2122 = NCI-H2122 (RB1 wild-type)
Experimental: as §1, §2

HOP-62 = HOP-62 (RB1 wild-type)
Experimental: as §1, §2

ABC-1 = ABC-1 (RB1 wild-type)
Experimental: as §1, §2

PC-9 = PC-9 (RB1 wild-type)
Experimental: as §1, §2

[1] = pemetrexed + MYT1 siRNA #16 10 nM
[2] = pemetrexed + MYT1 siRNA #18 10 nM

“MYT1 #16: ON-TARGETplus individual siRNA, Dharmacon product code J-005026-16, nucleotide sequence SEQ ID No: 4 (GGACCUAAGUGACAUCAAC; chemistry not fully specified)” was tested, and the “Cytotoxic activity of siRNA alone, MYT1 #16” value (“Cytotoxic activity … MYT1 #16” below) (NCI-H460; 10 nM, no pemetrexed) was −6.609%, the “Bliss score maximum value, MYT1 #16” value (NCI-H460; [1]) was 17.443 and the “HSA score maximum value, MYT1 #16” value (NCI-H460; [1]) was 9.093. For the same substance, the “Cytotoxic activity … MYT1 #16” value (NCI-H292; 10 nM, no pemetrexed) was 19.878%, the “Bliss score maximum value, MYT1 #16” value (NCI-H292; [1]) was 19.031 and the “HSA score maximum value, MYT1 #16” value (NCI-H292; [1]) was 21.907. The “Cytotoxic activity … MYT1 #16” value (NCI-H1666; 10 nM, no pemetrexed) was −4.467%, the “Bliss score maximum value, MYT1 #16” value (NCI-H1666; [1]) was 8.127 and the “HSA score maximum value, MYT1 #16” value (NCI-H1666; [1]) was 5.753. For the same substance, the “Cytotoxic activity … MYT1 #16” value (NCI-H441; 10 nM, no pemetrexed) was 12.986%, the “Bliss score maximum value, MYT1 #16” value (NCI-H441; [1]) was 21.600 and the “HSA score maximum value, MYT1 #16” value (NCI-H441; [1]) was 30.794. The “Cytotoxic activity … MYT1 #16” value (NCI-H358; 10 nM, no pemetrexed) was 0.021%, the “Bliss score maximum value, MYT1 #16” value (NCI-H358; [1]) was 12.322 and the “HSA score maximum value, MYT1 #16” value (NCI-H358; [1]) was 12.336. For the same substance, the “Cytotoxic activity … MYT1 #16” value (LU65; 10 nM, no pemetrexed) was 8.109%, the “Bliss score maximum value, MYT1 #16” value (LU65; [1]) was 29.374 and the “HSA score maximum value, MYT1 #16” value (LU65; [1]) was 34.405. For the same substance, the “Cytotoxic activity … MYT1 #16” value (NCI-H322; 10 nM, no pemetrexed) was −10.363%, the “Bliss score maximum value, MYT1 #16” value (NCI-H322; [1]) was 24.679 and the “Cytotoxic activity … MYT1 #16” value (NCI-H1155; 10 nM, no pemetrexed) was 5.782%. The “Bliss score maximum value, MYT1 #16” value (NCI-H1155; [1]) was 77.287, the “HSA score maximum value, MYT1 #16” value (NCI-H1155; [1]) was 76.586 and the “Cytotoxic activity … MYT1 #16” value (ChaGo-K-1; 10 nM, no pemetrexed) was −1.049%. For the same substance, the “Bliss score maximum value, MYT1 #16” value (ChaGo-K-1; [1]) was 40.066, the “HSA score maximum value, MYT1 #16” value (ChaGo-K-1; [1]) was 39.075 and the “Cytotoxic activity … MYT1 #16” value (NCI-H1993; 10 nM, no pemetrexed) was 35.910%. For the same substance, the “Bliss score maximum value, MYT1 #16” value (NCI-H1993; [1]) was 5.736, the “HSA score maximum value, MYT1 #16” value (NCI-H1993; [1]) was 21.843 and the “Cytotoxic activity … MYT1 #16” value (NCI-H2110; 10 nM, no pemetrexed) was 15.886%. For the same substance, the “Bliss score maximum value, MYT1 #16” value (NCI-H2110; [1]) was 24.584, the “HSA score maximum value, MYT1 #16” value (NCI-H2110; [1]) was 36.712 and the “Cytotoxic activity … MYT1 #16” value (NCI-H596; 10 nM, no pemetrexed) was 13.549%. The “Bliss score maximum value, MYT1 #16” value (NCI-H596; [1]) was 56.598, the “HSA score maximum value, MYT1 #16” value (NCI-H596; [1]) was 67.277 and the “Cytotoxic activity … MYT1 #16” value (A549; 10 nM, no pemetrexed) was −3.683%. The “Bliss score maximum value, MYT1 #16” value (A549; [1]) was 17.634, the “HSA score maximum value, MYT1 #16” value (A549; [1]) was 15.047 and the “Cytotoxic activity … MYT1 #16” value (NCI-H661; 10 nM, no pemetrexed) was 20.313%. For the same substance, the “Bliss score maximum value, MYT1 #16” value (NCI-H661; [1]) was 8.081, the “HSA score maximum value, MYT1 #16” value (NCI-H661; [1]) was 22.502 and the “Cytotoxic activity … MYT1 #16” value (EKVX; 10 nM, no pemetrexed) was −1.125%. The “Bliss score maximum value, MYT1 #16” value (EKVX; [1]) was 16.454, the “HSA score maximum value, MYT1 #16” value (EKVX; [1]) was 15.771 and the “Cytotoxic activity … MYT1 #16” value (NCI-H2122; 10 nM, no pemetrexed) was 11.825%. The “Bliss score maximum value, MYT1 #16” value (NCI-H2122; [1]) was 15.749, the “HSA score maximum value, MYT1 #16” value (NCI-H2122; [1]) was 20.659 and the “Cytotoxic activity … MYT1 #16” value (HOP-62; 10 nM, no pemetrexed) was 8.347%. The “Bliss score maximum value, MYT1 #16” value (HOP-62; [1]) was 20.165, the “HSA score maximum value, MYT1 #16” value (HOP-62; [1]) was 24.453 and the “Cytotoxic activity … MYT1 #16” value (ABC-1; 10 nM, no pemetrexed) was 3.870%. The “Bliss score maximum value, MYT1 #16” value (ABC-1; [1]) was 21.970, the “HSA score maximum value, MYT1 #16” value (ABC-1; [1]) was 25.475 and the “Cytotoxic activity … MYT1 #16” value (PC-9; 10 nM, no pemetrexed) was −5.180%. The “Bliss score maximum value, MYT1 #16” value (PC-9; [1]) was 35.148.
With “MYT1 #18: ON-TARGETplus individual siRNA, Dharmacon product code J-005026-18, nucleotide sequence SEQ ID No: 5 (CUUCCGAGCUGCGUUCUGU; chemistry not fully specified)” the “Cytotoxic activity of siRNA alone, MYT1 #18” value (“Cytotoxic activity … MYT1 #18” for short) (NCI-H460; 10 nM, no pemetrexed) was −2.387%, the “HSA score maximum value, MYT1 #18” value (NCI-H460; [2]) was 9.099 and the “Cytotoxic activity … MYT1 #18” value (NCI-H292; 10 nM, no pemetrexed) was 11.155%. The “Bliss score maximum value, MYT1 #18” value (NCI-H292; [2]) was 6.895, the “HSA score maximum value, MYT1 #18” value (NCI-H292; [2]) was 11.985 and the “Cytotoxic activity … MYT1 #18” value (NCI-H1666; 10 nM, no pemetrexed) was 1.456%. The “Bliss score maximum value, MYT1 #18” value (NCI-H1666; [2]) was 13.160, the “HSA score maximum value, MYT1 #18” value (NCI-H1666; [2]) was 13.970 and the “Cytotoxic activity … MYT1 #18” value (NCI-H441; 10 nM, no pemetrexed) was 22.238%. The “Bliss score maximum value, MYT1 #18” value (NCI-H441; [2]) was 0.784, the “HSA score maximum value, MYT1 #18” value (NCI-H441; [2]) was 17.896 and the “Cytotoxic activity … MYT1 #18” value (NCI-H358; 10 nM, no pemetrexed) was 2.693%. The “Bliss score maximum value, MYT1 #18” value (NCI-H358; [2]) was 13.168, the “HSA score maximum value, MYT1 #18” value (NCI-H358; [2]) was 14.592 and the “Cytotoxic activity … MYT1 #18” value (LU65; 10 nM, no pemetrexed) was −0.297%. The “Bliss score maximum value, MYT1 #18” value (LU65; [2]) was 34.154, the “HSA score maximum value, MYT1 #18” value (LU65; [2]) was 33.984 and the “Cytotoxic activity … MYT1 #18” value (NCI-H322; 10 nM, no pemetrexed) was −6.271%. For the same substance, the “Bliss score maximum value, MYT1 #18” value (NCI-H322; [2]) was 23.827, the “HSA score maximum value, MYT1 #18” value (NCI-H322; [2]) was 19.509 and the “Cytotoxic activity … MYT1 #18” value (NCI-H1155; 10 nM, no pemetrexed) was 30.960%. The “Bliss score maximum value, MYT1 #18” value (NCI-H1155; [2]) was 23.341, the “HSA score maximum value, MYT1 #18” value (NCI-H1155; [2]) was 32.708 and the “Cytotoxic activity … MYT1 #18” value (ChaGo-K-1; 10 nM, no pemetrexed) was −2.748%. For the same substance, the “Bliss score maximum value, MYT1 #18” value (ChaGo-K-1; [2]) was 34.464, the “HSA score maximum value, MYT1 #18” value (ChaGo-K-1; [2]) was 32.605 and the “Cytotoxic activity … MYT1 #18” value (NCI-H1993; 10 nM, no pemetrexed) was 10.347%. The “Bliss score maximum value, MYT1 #18” value (NCI-H1993; [2]) was 7.046, the “HSA score maximum value, MYT1 #18” value (NCI-H1993; [2]) was 14.207 and the “Cytotoxic activity … MYT1 #18” value (NCI-H2110; 10 nM, no pemetrexed) was 9.660%. For the same substance, the “Bliss score maximum value, MYT1 #18” value (NCI-H2110; [2]) was 23.200, the “HSA score maximum value, MYT1 #18” value (NCI-H2110; [2]) was 28.531 and the “Cytotoxic activity … MYT1 #18” value (NCI-H596; 10 nM, no pemetrexed) was −2.058%. For the same substance, the “Bliss score maximum value, MYT1 #18” value (NCI-H596; [2]) was 44.329, the “HSA score maximum value, MYT1 #18” value (NCI-H596; [2]) was 42.707 and the “Cytotoxic activity … MYT1 #18” value (A549; 10 nM, no pemetrexed) was 0.844%. For the same substance, the “Bliss score maximum value, MYT1 #18” value (A549; [2]) was 9.581, the “HSA score maximum value, MYT1 #18” value (A549; [2]) was 10.174 and the “Cytotoxic activity … MYT1 #18” value (NCI-H661; 10 nM, no pemetrexed) was 9.766%. For the same substance, the “Bliss score maximum value, MYT1 #18” value (NCI-H661; [2]) was 11.699, the “HSA score maximum value, MYT1 #18” value (NCI-H661; [2]) was 16.633 and the “Cytotoxic activity … MYT1 #18” value (EKVX; 10 nM, no pemetrexed) was 1.053%. For the same substance, the “Bliss score maximum value, MYT1 #18” value (EKVX; [2]) was 6.653, the “HSA score maximum value, MYT1 #18” value (EKVX; [2]) was 7.060 and the “Cytotoxic activity … MYT1 #18” value (NCI-H2122; 10 nM, no pemetrexed) was 5.899%. For the same substance, the “Bliss score maximum value, MYT1 #18” value (NCI-H2122; [2]) was 13.938, the “Cytotoxic activity … MYT1 #18” value (HOP-62; 10 nM, no pemetrexed) was 10.654% and the “Bliss score maximum value, MYT1 #18” value (HOP-62; [2]) was 20.375. For the same substance, the “HSA score maximum value, MYT1 #18” value (HOP-62; [2]) was 25.849, the “Cytotoxic activity … MYT1 #18” value (ABC-1; 10 nM, no pemetrexed) was 7.811% and the “Bliss score maximum value, MYT1 #18” value (ABC-1; [2]) was 22.139. The “Cytotoxic activity … MYT1 #18” value (PC-9; 10 nM, no pemetrexed) was −9.517%, the “Bliss score maximum value, MYT1 #18” value (PC-9; [2]) was 18.833 and the “HSA score maximum value, MYT1 #18” value (PC-9; [2]) was 14.476.
